Assay results: ChEMBL document CHEMBL1132769, “Diphenyl sulfoxides as selective antagonists of the muscarinic M2 receptor” (Bioorg Med Chem Lett, 2000)
pKi: −log10 of the molar value. “And” between values parts separate entries of the source, which are not always exact repeats. Identical values can stand only once. One block for each compound: values may come before it.

Columns and labels:
[1] = target: Muscarinic acetylcholine receptors; M1 & M2 (Homo sapiens) (UniProt P11229+P08172); assay: Ratio of binding affinity to M1 receptor compared to that of M2 receptor; format: protein assay
[2] = target: T1, Muscarinic acetylcholine receptor M2 (Homo sapiens, UniProt P08172); assay: Binding affinity towards the cloned human Muscarinic acetylcholine receptor M2
T1 sequence (P08172 whole entry): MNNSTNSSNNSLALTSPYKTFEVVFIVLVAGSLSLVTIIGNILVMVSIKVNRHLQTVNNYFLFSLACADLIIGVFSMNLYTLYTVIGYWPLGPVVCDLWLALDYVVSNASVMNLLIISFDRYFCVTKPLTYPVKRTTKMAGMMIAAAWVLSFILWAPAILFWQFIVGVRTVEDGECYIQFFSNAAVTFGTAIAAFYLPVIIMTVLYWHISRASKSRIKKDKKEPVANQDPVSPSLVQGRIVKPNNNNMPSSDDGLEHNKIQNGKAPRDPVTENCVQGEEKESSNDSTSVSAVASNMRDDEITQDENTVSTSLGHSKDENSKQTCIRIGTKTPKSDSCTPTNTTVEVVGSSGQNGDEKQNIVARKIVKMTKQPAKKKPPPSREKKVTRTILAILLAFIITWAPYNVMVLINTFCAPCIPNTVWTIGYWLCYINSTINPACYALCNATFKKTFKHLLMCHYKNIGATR

[3] = target: T2, Muscarinic acetylcholine receptor M1 (Homo sapiens, UniProt P11229); assay: Binding affinity towards the cloned human Muscarinic acetylcholine receptor M1
T2 sequence (P11229 whole entry): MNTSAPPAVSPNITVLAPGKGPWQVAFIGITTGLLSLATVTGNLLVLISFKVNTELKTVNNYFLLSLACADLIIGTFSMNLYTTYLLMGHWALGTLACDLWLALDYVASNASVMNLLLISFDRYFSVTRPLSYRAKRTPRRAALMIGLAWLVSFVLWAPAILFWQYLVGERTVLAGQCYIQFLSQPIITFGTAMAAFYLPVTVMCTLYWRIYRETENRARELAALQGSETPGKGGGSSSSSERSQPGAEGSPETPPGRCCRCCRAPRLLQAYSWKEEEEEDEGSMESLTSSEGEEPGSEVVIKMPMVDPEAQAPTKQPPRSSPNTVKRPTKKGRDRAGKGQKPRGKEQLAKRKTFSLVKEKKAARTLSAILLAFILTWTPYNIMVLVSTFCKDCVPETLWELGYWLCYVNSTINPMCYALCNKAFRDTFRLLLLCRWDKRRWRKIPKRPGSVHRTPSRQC

Compound: COc1ccc([S@@+]([O-])c2ccc(C(C#N)N3CCN(C4CCCCC4)CC3)cc2)cc1 (single isomer, unassigned; form 2) [listing 1 of 2 here]
Ratio [1]: 22 and 9

Compound: COc1ccc([S@@+]([O-])c2ccc(C(C#N)N3CCN(C4CCCCC4)CC3)cc2)cc1 (single isomer, unassigned; form 1) [listing 1 of 2 here]
Ratio [1]: 15

Compound: CC(c1ccc(S(=O)(=O)c2ccccc2)cc1)N1CCN(c2ccccc2)CC1 (stereo unspecified)
pKi [2]: 5.34 | Ratio [1]: 1 | pKi [3]: 5.32

Compound: COc1ccc([S@@+]([O-])c2ccc(C(C#N)N3CCN(C4CCCCC4)CC3)cc2)cc1 (stereo in doubt; 1) [listing 1 of 2 here]
pKi [2]: 8.57

Compound: COc1ccc([S@@+]([O-])c2ccc(C(C#N)N3CCN(C4CCCCC4)CC3)cc2)cc1 (single isomer, unassigned; form 2) [listing 2 of 2 here]
pKi [2]: 8.42 and 7.70 | pKi [3]: 7.08 and 6.74

Compound: CC(c1ccc(S(=O)(=O)c2ccccc2)cc1)N1CCN(CCO)CC1 (stereo unspecified)
pKi [2]: 7.59 | Ratio [1]: 3 | pKi [3]: 7.11

Compound: COc1ccc([S+]([O-])c2ccc(C(C#N)N3CCN(C4CCCCC4)CC3)cc2)cc1 (stereo unspecified)
pKi [2]: 8.10 | Ratio [1]: 14 | pKi [3]: 6.93

Compound: CC(c1ccc(S(=O)(=O)c2ccccc2)cc1)N1CCNCC1 (stereo unspecified)
pKi [2]: 7.43 | Ratio [1]: 1.6 | pKi [3]: 7.24

Compound: CC(c1ccc(S(=O)(=O)c2ccccc2)cc1)N1CCN(C)CC1 (stereo unspecified)
pKi [2]: 7.47 | Ratio [1]: 3 | pKi [3]: 7.02

Compound: COc1ccc([S+]([O-])c2ccc(C(N3CCN(C4CCCCC4)CC3)C(F)(F)F)cc2)cc1 (stereo unspecified)
pKi [2]: 8.30 | Ratio [1]: 5 | pKi [3]: 7.64

Compound: COc1ccc([S@@+]([O-])c2ccc(C(C#N)N3CCN(C4CCCCC4)CC3)cc2)cc1 (stereo in doubt; 1) [listing 2 of 2 here]
Ratio [1]: 40

Compound: COc1ccc([S+]([O-])c2ccc(C(C3CCCCC3)N3CCN(C4CCCCC4)CC3)cc2)cc1 (stereo unspecified)
pKi [2]: 7.77 | Ratio [1]: 3 | pKi [3]: 7.28

Compound: COc1ccc([S@@+]([O-])c2ccc(C(C#N)N3CCN(C4CCCCC4)CC3)cc2)cc1 (single isomer, unassigned; form 1) [listing 2 of 2 here]
pKi [2]: 8.05 and 7.77 | pKi [3]: 6.85 and 6.60

Compound: CCOC(=O)N1CCN(C(C)c2ccc(S(=O)(=O)c3ccccc3)cc2)CC1 (stereo unspecified)
pKi [2]: 6.87 | Ratio [1]: 1.5 | pKi [3]: 6.70

The next lines start with the values.

pKi [2]: 9.22 | Ratio [1]: 10 | pKi [3]: 8.22
Compound: COc1ccc(S(=O)(=O)c2ccc(C(C)N3CCN(C4CCCCC4)CC3)cc2)cc1 (stereo unspecified)

pKi [2]: 9.70 | Ratio [1]: 6 | pKi [3]: 8.89
Compound: CC(c1ccc(S(=O)(=O)c2ccccc2)cc1)N1CCN(C2CCCCC2)CC1 (stereo unspecified)

pKi [2]: 7.48 | Ratio [1]: 2.6 | pKi [3]: 7.07
Compound: CC(c1ccc(S(=O)(=O)c2ccc(C(C)(C)C)cc2)cc1)N1CCN(C2CCCCC2)CC1 (stereo unspecified)

pKi [2]: 9.10 | Ratio [1]: 14 | pKi [3]: 7.96
Compound: Cc1ccc(S(=O)(=O)c2ccc(C(C)N3CCN(C4CCCCC4)CC3)cc2)cc1 (stereo unspecified)

pKi [2]: 7.40 | Ratio [1]: 6 | pKi [3]: 6.62
Compound: COc1ccc([S+]([O-])c2ccc(C(C(N)=O)N3CCN(C4CCCCC4)CC3)cc2)cc1 (stereo unspecified)

pKi [2]: 7.44 | Ratio [1]: 3 | pKi [3]: 6.97
Compound: CC(c1ccc(S(=O)(=O)c2ccc(S(C)(=O)=O)cc2)cc1)N1CCN(C2CCCCC2)CC1 (stereo unspecified)

Ratio [1]: 6
Compound: COc1ccc([S+]([O-])c2ccc(C(C)N3CCN(C4CCCCC4)CC3)cc2)cc1 (stereo unspecified)
